In patent US20070218460A1, “Method of Estimating Toxicity of Drug” (TAKEDA PHARMACEUTICAL COMPANY LIMITED, priority 2003, published 2007):

Assays:
depp = assay: Real-time quantitative PCR of PLsis marker gene expression; assay type: cell-based, human; settings: HepG2 cells, 24 hr exposure, relative value, control group = 1.0, GAPDH internal standard, n=3
Method: (§1) Using RNeasy Mini Kit (QIAGEN), total RNA was purified from the cells, and cDNA was synthesized in a 100 μL system using TaqMan Reverse Transcription Reagents (PE Applied Biosystems).
(§2) As the primer for glyceraldehyde-3-phosphoric acid dehydrogenase (GAPDH) and VIC labeled probe, those attached to TaqMan GAPDH Control Reagents (PE Applied Biosystems) were used.
(§3) Using 100 μL of the reaction mixture containing 5 μL of cDNA (1×TaqMan Universal PCR Master Mix (PE Applied Biosystems), 200 nM forward primer, 200 nM reverse primer and 200 nM TaqMan probe), 40 cycles of (1 cycle=95° C., 15 sec; 60° C., 1 min) PCR were performed. PCR and fluorescence detection were performed using ABI PRISM Sequence Detector 7000 (PE Applied Biosystems). As the internal standard, GAPDH was used to amend the measurement values. For the determination of significant difference, t-test was used (n=3).
(§4) For each test compound, the expression variation rate of 12 genes each relative to the control group was determined.

mgc4171 = assay: as above; assay type: cell-based, human; settings: HepG2 cells, 24 hr exposure, relative value, control group = 1.0, GAPDH internal standard, n=3
Method: as §1, §2, §3, §4

nr0b2 = assay: as above; assay type: cell-based, human; settings: HepG2 cells, 24 hr exposure, relative value, control group = 1.0, GAPDH internal standard, n=3
Method: as §1, §2, §3, §4

kiaa1001 = assay: as above; assay type: cell-based, human; settings: HepG2 cells, 24 hr exposure, relative value, control group = 1.0, GAPDH internal standard, n=3
Method: as §1, §2, §3, §4

tagln = assay: as above; assay type: cell-based, human; settings: HepG2 cells, 24 hr exposure, relative value, control group = 1.0, GAPDH internal standard, n=3
Method: as §1, §2, §3, §4

asah1 = assay: as above; assay type: cell-based, human; settings: HepG2 cells, 24 hr exposure, relative value, control group = 1.0, GAPDH internal standard, n=3
Method: as §1, §2, §3, §4

lss = assay: as above; assay type: cell-based, human; settings: HepG2 cells, 24 hr exposure, relative value, control group = 1.0, GAPDH internal standard, n=3
Method: as §1, §2, §3, §4

fabp1 = assay: as above; assay type: cell-based, human; settings: HepG2 cells, 24 hr exposure, relative value, control group = 1.0, GAPDH internal standard, n=3
Method: as §1, §2, §3, §4

flj22362 = assay: as above; assay type: cell-based, human; settings: HepG2 cells, 24 hr exposure, relative value, control group = 1.0, GAPDH internal standard, n=3
Method: as §1, §2, §3, §4

slc2a3 = assay: as above; assay type: cell-based, human; settings: HepG2 cells, 24 hr exposure, relative value, control group = 1.0, GAPDH internal standard, n=3
Method: as §1, §2, §3, §4

serpina3 = assay: as above; assay type: cell-based, human; settings: HepG2 cells, 24 hr exposure, relative value, control group = 1.0, GAPDH internal standard, n=3
Method: as §1, §2, §3, §4

hpn = assay: as above; assay type: cell-based, human; settings: HepG2 cells, 24 hr exposure, relative value, control group = 1.0, GAPDH internal standard, n=3
Method: as §1, §2, §3, §4

HepG2 cells [1] = assay: Highest concentration at which cells were viable after 72 hr exposure; assay type: cell-based, human
HepG2 cells [2] = assay: Electron-microscopic examination of PLsis induction potential (myelin-like structure)
Excerpt: Using 30 kinds of the following commercially available drugs as test compounds, the level of PLsis induction potential was examined with the emergence of an intracellular myelin-like structure or a structure having a high electron density, which is an early image thereof, as an index by electronmicroscopic observation.
HepG2 cells (purchased from ATCC) were exposed to the test compound by a conventional method. HepG2 cells used were of the cell growth phase. The attached HepG2 cells were washed twice with. Dulbecco's phosphate buffered saline (calcium and magnesium salt free; PBS(−))(Dainippon Pharmaceutical Co., Ltd.) containing 0.05 w/v % EDTA, detached with a cell dissociation solution of 0.25 vol % trypsin-1 mmol/L EDTA (Gibco BRL) diluted 2-fold with PBS(−), centrifuged to remove the supernatant, and adjusted to a concentration of 2×10^5 cells/250 μL with a culture medium [Dulbecco's modified Eagle medium (DMEM)(Gibco BRL) supplemented with 50 U/mL penicillin (Gibco BRL)-[…] streptomycin (Gibco BRL) and 5 vol % FBS (Bio whittaker)]. DMSO alone or a culture medium containing the above-mentioned test compound in DMSO solution was dispensed to a well by 250 μL, the above-mentioned cell suspension (250 μL) was added, and cultured in a CO2 incubator (7100; Napco) under an atmosphere of 5% CO2—95% air at 37° C.
After culture for 72 hr, the culture medium was removed, and the cells were fixed with 1 w/v % glutaraldehyde solution. After fixing with 2 w/v % osmic acid for 2 hr by a conventional method and dehydrating with an alcohol series, the cells were embedded in a resin (Quetol 812). Ultrathin slices were prepared and, after electron staining, observed with an electron microscope (H-300; Hitachi) and photographed in 3 or more pictures per each sample (magnification ×5000). The processing after post-fixation was performed by Applied Medical Research.

Row | SMILES | expression variation rate depp (depp) | expression variation rate mgc4171 (mgc4171) | expression variation rate nr0b2 (nr0b2) | expression variation rate kiaa1001 (kiaa1001) | expression variation rate tagln (tagln) | expression variation rate asah1 (asah1) | expression variation rate lss (lss) | expression variation rate fabp1 (fabp1) | expression variation rate flj22362 (flj22362) | expression variation rate slc2a3 (slc2a3) | expression variation rate serpina3 (serpina3) | expression variation rate hpn (hpn) | addition concentration (highest concentration at which cells survived after 72 hr of culture) (HepG2 cells [1]) [µmol/L] | frequency of appearance of myelin-like structure (HepG2 cells [2])
1 | Cc1cc(NS(=O)(=O)c2ccc(N)cc2)no1 [sulfamethoxazole] | 0.70 | 0.78 | 0.82 | 0.84 | 0.99 | 1.26 | 0.82 | 0.85 | 0.87 | 1.11 | 0.98 | 0.89 | 25 | −
2 | O=C(CCCN1CCC(O)(c2ccc(Cl)cc2)CC1)c1ccc(F)cc1 [haloperidol] | 1.38 | 1.24 | 1.49 | 1.32 | 0.52 | 0.77 | 1.52 | 1.50 | 0.93 | 0.44 | 1.31 | 1.43 | 8.3 | −
3 | CC(=O)N1CCN(c2ccc(OCC3COC(Cn4ccnc4)(c4ccc(Cl)cc4Cl)O3)cc2)CC1 (stereo not shown) [ketoconazole] | 2.29 | 1.53 | 2.36 | 2.24 | 0.71 | 1.47 | 4.33 | 5.30 | 1.95 | 0.48 | 2.37 | 2.71 | 8.3 | +
4 | C1CCC(C(CC2CCCCN2)C2CCCCC2)CC1 (stereo not shown) [perhexiline] | 2.55 | 1.93 | 2.09 | 1.98 | 0.26 | 3.12 | 3.10 | 2.49 | 3.42 | 0.22 | 2.50 | 2.22 | 8.3 | ++
5 | CC[C@H]1OC(=O)[C@H](C)[C@@H](O[C@H]2C[C@@](C)(OC)[C@@H](O)[C@H](C)O2)[C@H](C)[C@@H](O[C@@H]2O[C@H](C)C[C@H](N(C)C)[C@H]2O)[C@](C)(O)C[C@@H](C)C(=O)[C@H](C)[C@@H](O)[C@]1(C)O [erythromycin] | 0.71 | 0.86 | 0.90 | 0.78 | 0.85 | 0.90 | 0.87 | 0.73 | 0.92 | 0.73 | 0.85 | 0.87 | 25 | −
6 | CN(C)CCCN1c2ccccc2CCc2ccc(Cl)cc21 [clomipramine] | 2.08 | 1.41 | 0.98 | 3.83 | 0.78 | 0.82 | 1.52 | 2.36 | 1.46 | 0.63 | 2.03 | 2.39 | 8.3 | +
7 | CC1COc2c(N3CCN(C)CC3)c(F)cc3c(=O)c(C(=O)O)cn1c23 (stereo not shown) [ofloxacin] | 0.79 | 0.77 | 0.81 | 0.86 | 0.74 | 1.17 | 0.78 | 0.75 | 0.68 | 0.94 | 0.82 | 0.72 | 25 | −
8 | CC(C)NCC(O)c1ccc(NS(C)(=O)=O)cc1 (stereo not shown) [sotalol] | 0.80 | 0.72 | 0.63 | 0.84 | 0.80 | 1.39 | 0.88 | 0.98 | 0.85 | 1.53 | 0.78 | 0.79 | 25 | −
